Measured values: patent US9671412B2, “Beclin 1 phosphorylation” (Board of Regents, The University of Texas System, priority 2012, dated 2017)
Entries after “also recorded” stand apart in the source; their conditions may differ.

What was measured:
GST-Akt1 = biological target: T1, GST-Akt1 (Homo sapiens, UniProt P31749); assay: In vitro phosphorylation of Beclin 1 S295 by GST-Akt1; assay type: biochemical; settings: in vitro kinase reaction
T1 construct: GST
Text: (§1) We examined whether autophagy execution proteins could be targets of Akt. We focused on Beclin 1 because of its role in autophagy and tumor suppression (4).

[1] = tested on: MCF7 human breast carcinoma cells; assay: Basal autophagy (GFP-LC3) in transfected MCF7 cells; assay type: cell-based; settings: lesser extent with Beclin 1 AA than with wild-type Beclin 1
Text: We transfected MCF7 human breast carcinoma cells [which express low amounts of endogenous Beclin 1 (14)] with GFP-LC3 and wild-type Beclin 1 or Beclin 1 S295A or AA mutants. […] Thus, Akt inhibits basal autophagy both through Beclin 1 phosphorylation-dependent and independent mechanisms.

[2] = tested on: myr-Akt1-expressing Rat2 cell tumors; assay: Tumors of myr-Akt1-expressing Rat2 cells in NOD SCID mice; assay type: in vivo; settings: co-expressed with myr-Akt1 in Rat2 cells
Text: To examine the role of Akt-mediated Beclin 1 phosphorylation in Akt-driven tumorigenesis, we transduced Rat2 fibroblasts with myr-Akt1 (which transforms rat fibroblasts (15)) and either wild-type Beclin 1 or Beclin 1 phosphorylation site mutants. Myr-Akt1 suppressed autophagy in Rat2 fibroblasts, reduced co-immunoprecipitation of Class III PI3K Vps34 with Beclin 1, and decreased Beclin 1-associated lipid kinase activity. […] Expression of myr-Akt1 had minimal effects on the interaction of Beclin 1 AA and Vps34 or on the amounts of Beclin 1 AA-associated Vps34 activity. Thus, myr-Akt1 suppresses Beclin 1-associated Vps34 activity and autophagy in a manner that is partially reversed by a Beclin 1 mutant resistant to Akt-mediated phosphorylation.
All myr-Akt1-expressing Rat2 cells formed tumors in immunodeficient NOD SCID® mice, but tumor growth rate and tumor mass upon necropsy were less for cells expressing Beclin 1 AA than for cells expressing wild-type Beclin 1 or myr-Akt1 alone. Tumors expressing myr-Akt1 alone had numerous cells displaying p62 immunoreactivity (indicating autophagy suppression) whereas very few p62 immunoreactive cells were detected in tumors from cells expressing both myr-Akt1 and Beclin 1 AA. […] Tumors expressing active Akt alone or with Beclin 1 had higher mean mitotic counts (n=8.39; n=8.37, respectively) than tumors expressing myr-Akt1 and Beclin 1 AA (n=3.67) (P<0.0001). They also had increased Ki-67 labeling, and decreased TUNEL staining. Thus, the expression of a mutant of Beclin 1 that cannot be phosphorylated by Akt increases tumor cell autophagy, decreases tumor growth rate and size, decreases tumor cellular proliferation, and increases tumor cell death.

H1975 cells = assay: Autophagy (GFP-LC3 puncta, LC3-II, p62) in H1975 NSCLC cells; assay type: cell-based, human
Text: (§2) To evaluate whether EGFR activation inhibits autophagy, we used a human non-small cell lung carcinoma (NSCLC) cell line, A549, that express wild-type (WT) EGFR (VanMeter et al., 2008). We measured autophagy by examining the subcellular localization of a green fluorescent autophagy reporter protein, GFP-LC3, and by measuring levels of LC3-II, the autophagosome-associated lipidated form of LC3, and p62, an autophagic substrate (Mizushima et al., 2010).
We investigated whether this mechanism underlies EGFR regulation of autophagy in NSCLC cells with activating mutations in EGFR. We used two NSCLC lines: HCC827 cells have the Δ746-750 EGFR activating mutation and are TKI-sensitive, and H1975 cells have the L858R EGFR activating mutation and are TKI-resistant due to a T790M mutation. First, we evaluated if TKI treatment induces autophagy; […]. Thus, TKI therapy disrupts the EGFR/Beclin 1 complex and induces autophagy in TKI-sensitive but not TKI-resistant cells.

[3] = tested on: EGFR Δ746-750 (HCC827 cells)
Text: (§3) We investigated whether this mechanism underlies EGFR regulation of autophagy in NSCLC cells with activating mutations in EGFR. We used two NSCLC lines: HCC827 cells have the Δ746-750 EGFR activating mutation and are TKI-sensitive, and H1975 cells have the L858R EGFR activating mutation and are TKI-resistant due to a T790M mutation.

[4] = tested on: EGFR L858R/T790M (H1975 cells); assay: EGFR signalling, Beclin 1 interactome and Beclin 1 tyrosine phosphorylation in H1975 cells; assay type: cell-based, human
Text: as §3

HCC827 xenografts = assay: HCC827 tumor xenografts under TKI therapy; assay type: in vivo; settings: control mice without induction or with induced WT Beclin 1
Text: as §3

HCC827 cells = assay: Autophagy (GFP-LC3 puncta, LC3-II, p62) in HCC827 NSCLC cells; assay type: cell-based, human
Text: as §3

[5] = tested on: A549 cells (wild-type EGFR); assay: Autophagy in serum-starved A549 cells; assay type: cell-based, human; settings: addition for 30 min
Text: as §2

[6] = tested on: Beclin 1 S295 / S234 phosphorylation; assay: Phosphorylation of endogenous Beclin 1 S295 and S234 in HeLa cells expressing myr-Akt1; assay type: cell-based
Text: as §1

mTOR = assay: Phospho-4E-BP1 (mTOR phosphorylation target) in HeLa cells; assay type: cell-based; settings: including those expressing myr-Akt1
Text: We investigated whether Akt inhibits autophagy by directly regulating the core autophagy machinery independently of mTOR. Expression of constitutively active myristoylated (5) and tagged Akt1 (Flag-tagged myr-Akt) in HeLa cells inhibited autophagy during growth in normal medium, in response to serum and amino acid starvation (a physiological inducer of autophagy), in response to treatment with an ATP-competitive inhibitor of mTOR, Torin1 (6), and in response to both starvation and Torin1 treatment. In all conditions, cells expressing myr-Akt1 had decreased numbers of puncta upon transfection with a fusion protein of green fluorescent protein with LC3 (GFP-LC3), a fluorescent marker of autophagosomes; increased amounts of p62 (a substrate that is degraded by autophagy); and increased amounts of the cytosolic non-lipidated form of LC3, LC3-I, and of total LC3 (7). Amounts of phospho-4E-BP1, a phosphorylation target of mTOR, were decreased in Torin1-treated cells, including those expressing myr-Akt1.

HeLa cells = assay: Autophagy induction in HeLa cells transfected with empty vector or WT EGFR; assay type: cell-based
Text: We investigated the effects of active EGFR mutants that constitutively bind Beclin 1 on autophagy. […] In cells transfected with the active EGFR mutants, L858R or 4746-750, starvation and Torin1 induced lower levels of autophagy. […] Thus, active EGFR mutants suppress autophagy in a manner that is partially independent of mTOR.

T1 sequence (P31749 whole entry): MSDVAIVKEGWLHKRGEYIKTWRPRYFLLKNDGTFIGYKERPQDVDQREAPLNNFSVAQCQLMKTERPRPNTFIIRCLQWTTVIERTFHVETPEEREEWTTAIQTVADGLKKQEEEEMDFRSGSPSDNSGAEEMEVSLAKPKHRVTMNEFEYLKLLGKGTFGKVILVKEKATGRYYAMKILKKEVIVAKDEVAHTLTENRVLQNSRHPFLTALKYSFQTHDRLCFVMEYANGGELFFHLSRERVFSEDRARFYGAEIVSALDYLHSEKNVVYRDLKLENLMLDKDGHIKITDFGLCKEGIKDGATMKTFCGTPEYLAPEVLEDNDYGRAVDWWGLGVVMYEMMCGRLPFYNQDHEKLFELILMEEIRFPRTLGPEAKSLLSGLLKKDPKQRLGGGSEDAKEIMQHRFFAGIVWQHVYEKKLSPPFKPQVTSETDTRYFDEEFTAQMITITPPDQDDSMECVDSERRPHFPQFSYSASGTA

Molecule: NC1(c2ccc(-c3nc4ccn5c(=O)[nH]nc5c4cc3-c3ccccc3)cc2)CCC1 [MK-2206]
- GST-Akt1 phosphorylation of Beclin 1 S295 in vitro (GST-Akt1): partially blocked
- basal autophagy [1]: increased basal autophagy

Molecule: Beclin 1: wild-type human Beclin 1, essential autophagy and tumor suppressor protein; expressed in cells
- mean mitotic counts of tumors [2]: 8.37

Molecule: C#Cc1cccc(Nc2ncnc3cc(OCCOC)c(OCCOC)cc23)c1 [erlotinib]
- LC3-II conversion and p62 degradation (H1975 cells; H1975 cells): not
- GFP-LC3 puncta (H1975 cells; H1975 cells stably transfected with GFP-LC3): not
- Beclin 1/EGFR interaction [3]: blocked; also recorded: disruption of EGFR/Beclin 1 binding
- Beclin 1 tyrosine phosphorylation [3]: decreased
- EGFR phosphorylation [3]: EGFR dephosphorylation
- endogenous Beclin 1 Y233 phosphorylation ([3]; phosphospecific antibody): blocked
- Beclin 1/EGFR interaction [4]: not
- endogenous Beclin 1 Y233 phosphorylation ([4]; phosphospecific antibody): not
- time to complete regression of all tumor xenografts (HCC827 xenografts): ≤ 14 days
- LC3-II conversion and p62 degradation (HCC827 cells; HCC827 cells): demonstrated LC3-II conversion and p62 degradation
- GFP-LC3 puncta (HCC827 cells; HCC827 cells stably transfected with GFP-LC3): increased GFP-LC3 puncta in a dose-dependent manner

Molecule: epidermal growth factor [EGF, growth factor ligand that triggers EGFR signaling]
- autophagy induced by serum depletion [5]: partially reversed autophagy induction

Molecule: CCC(=O)N1CCN(c2ccc(-n3c(=O)ccc4cnc5ccc(-c6cnc7ccccc7c6)cc5c43)cc2C(F)(F)F)CC1 [Torin1]
- myr-Akt1-driven phosphorylation of endogenous Beclin 1 S295 and S234 [6]: not reversed
- amounts of phospho-4E-BP1 (mTOR): decreased
- autophagy (HeLa cells): induced autophagy

Molecule: Beclin 1 AA: Beclin 1 double mutation S234A/S295A, cannot be phosphorylated by Akt; expressed in cells
- mean mitotic counts of tumors [2]: 3.67
- tumors displaying degenerative features with numerous pyknotic nuclei [2]: 60%

Molecule: CCN(CC)CCCCN1c2ccccc2Oc2ccc(Cl)cc21 [Akt inhibitor X]
- GST-Akt1 phosphorylation of Beclin 1 S295 in vitro (GST-Akt1): partially blocked
